{"source": "patent US20090325920A1", "about": "“METHODS FOR THE TREATMENT OF A TRAUMATIC CENTRAL NERVOUS SYSTEM INJURY” (priority 2005, published 2009)", "key": {"[1]": {"assay": "Stability of progesterone solutions (isocratic HPLC-UV)", "type": "physicochemical", "description": "For all stability testing, the method of […], et al. was used with minor modifications ([…], et al. (1999) Journal of Pharmaceutical & Biomedical Analysis, 19(5):803-8). The method was originally validated to assess the stability of medroxyprogesterone acetate and estradiol valerate tablets. It is an isocratic HPLC-UV method utilizing external standardization. A 5 micron, 4.6×250mm BDS-Hypersil C-18 column (Keystone Scientific) was used and the analyses were completed on an Agilent 100 model HPLC system with photodiode array detector. The mobile phase consisted of 40% 0.07M ammonium acetate buffer, pH 7.2 and 60% acetonitrile. Detection was at […]. […] Reproducibility as assessed by 10 injections of the same preparation on multiple different days was always less that 10%. […] A five point standard curve was run with each analysis."}, "[2]": {"tested_on": "adults with blunt TBI, Glasgow Coma Scale score 4-12", "description": "We also hoped to detect signals of activity.\nAccording to the U.S. Food and Drug Administration, an “adverse event” is any undesirable medical event occurring to a subject in a clinical trial, whether or not related to the study drug. This includes events not seen at baseline, or worsened if present at baseline. “Serious adverse events” are defined as death, immediate risk of death, or suspicion that use or continued use would result in the patient's death, prolongation of existing hospitalization, persistent or significant disability/incapacity, or a congenital anomaly/birth defect.\nThese included any thromboembolic event (deep vein thrombosis, thrombophlebitis, ischemic myocardial infarction, pulmonary embolism, stroke or transient ischemic attack), elevated liver enzymes, temperature elevation, allergic reactions, and hyperglycemia. […] An independent internal safety monitor made the determination if an adverse event was associated with study treatment. Both the FDA and an independent NIH-appointed data safety monitoring board independently reviewed these determinations.\nSelection of participants: Consecutive adult victims of blunt TBI who reached Grady within 11 hours of injury with a post-stabilization or “index” Glasgow Coma Scale score (iGCS) of 4-12 were eligible for enrollment (FIG. 5).\nInterventions: Following proxy consent, patients were placed in one of 8 clinical subgroups defined by gender (male versus female), race (black versus all others) and TBI severity (moderate versus severe). […] This asymmetric approach was adopted at the request of our NIH-appointed DSMB to maximize the number of patients receiving study drug while maintaining blinding.\nWhenever a patient was enrolled, the next kit in sequence for that subgroup was used to prepare infusions. […] The remaining vials were used to prepare 5 subsequent 12-hour infusions at the same standard rate of 10 mls/hour for a total of 3 days of treatment. Details of drug monitoring are reported elsewhere (Wright et al. (2005) J Clin Pharmacol 45(6):640-648).\nMethods of Measurement: To assess drug safety, study personnel rounded daily to document the occurrence of adverse events (AEs) or serious adverse events (SAEs). Hourly vital signs (blood pressure, heart rate, respiratory rate, temperature, and pulse oximetry), intracranial pressure readings, and other parameters (mean arterial pressure, cerebral perfusion pressure, and fluid balance), were abstracted from each patient's chart. Laboratory values were obtained from the hospital's information system, and concomitant medications and interventions were noted.\nWhenever an SAE occurred, an independent board-certified neurosurgeon assessed its potential relationship to study treatment using pre-defined scale. SABs were reported within 24 hours to the Institutional Review Board (IRB), our NIH-appointed Data Safety Monitoring Board (DSMB), and the U.S. Food and Drug Administration. All other adverse events were reported to on a weekly basis.\nThe infusion was stopped if a patient experienced an anaphylactic reaction, a major thromboembolic event, an unexplained elevation of serum aspartate aminotransferase (AST) or alanine aminotransferase (ALT) to a level greater than 5,000 IU, or a serum total bilirubin level greater than 10 mg/dl. […] These rules were based on O'Brien-Fleming boundaries (O'Brien and Fleming (1979) Biometrics 35(3):549-556), constructed using an alpha spending approach (DeMets and Lan (1994) Statistics in Medicine 13(13-14):1341-1352; discussion 1353-1346).\nPrimary Data Analysis—Treatment and placebo groups were compared with respect to a variety of demographic, historical and prehospital characteristics to ensure that important independent predictors of outcome were equally distributed."}}, "data": [{"smiles": "CC(=O)[C@H]1CC[C@H]2[C@@H]3CCC4=CC(=O)CC[C@]4(C)[C@H]3CC[C@]12C", "note": "[progesterone, pregn-4-ene-3,20-dione]", "values": [{"measurement": "stability of solution", "setting": "[1]; Intralipid solutions containing progesterone in 95% ethyl alcohol", "result": "≥ 24", "unit": "h"}, {"measurement": "stability of solution", "setting": "[1]; solution of progesterone in 95% ethyl alcohol, room temperature", "result": "up to 2 years"}, {"measurement": "30-day adverse event rate: Acute respiratory distress syndrome", "setting": "[2]; both, human, in vivo, 30 days", "result": 2.6, "unit": "%"}, {"measurement": "30-day adverse event rate: Cardiac Arrhythmia", "setting": "[2]; both, human, in vivo, 30 days", "result": 5.2, "unit": "%"}, {"measurement": "30-day adverse event rate: Cholestatic Jaundice", "setting": "[2]; both, human, in vivo, 30 days", "result": 6.5, "unit": "%"}, {"measurement": "30-day adverse event rate: Fever", "setting": "[2]; both, human, in vivo, 30 days", "result": 70.1, "unit": "%"}, {"measurement": "30-day adverse event rate: Gastrointestinal Bleed", "setting": "[2]; both, human, in vivo, 30 days", "result": 5.2, "unit": "%"}, {"measurement": "30-day adverse event rate: Hyperglycemia-non DM", "setting": "[2]; both, human, in vivo, 30 days", "result": 27.3, "unit": "%"}, {"measurement": "30-day adverse event rate: Hypertension", "setting": "[2]; both, human, in vivo, 30 days", "result": 11.7, "unit": "%"}, {"measurement": "30-day adverse event rate: Hypotension", "setting": "[2]; both, human, in vivo, 30 days", "result": 9.1, "unit": "%"}, {"measurement": "30-day adverse event rate: Hypothermia", "setting": "[2]; both, human, in vivo, 30 days", "result": 5.2, "unit": "%"}, {"measurement": "30-day adverse event rate: Hypoxemia", "setting": "[2]; both, human, in vivo, 30 days", "result": 11.7, "unit": "%"}, {"measurement": "30-day adverse event rate: Increase Liver Enzyme", "setting": "[2]; both, human, in vivo, 30 days", "result": 6.5, "unit": "%"}, {"measurement": "30-day adverse event rate: Phlebitis at Injection Site", "setting": "[2]; both, human, in vivo, 30 days", "result": 1.3, "unit": "%"}, {"measurement": "30-day adverse event rate: Rash or Hives", "setting": "[2]; both, human, in vivo, 30 days", "result": 2.6, "unit": "%"}, {"measurement": "30-day adverse event rate: Seizures", "setting": "[2]; both, human, in vivo, 30 days", "result": 5.2, "unit": "%"}, {"measurement": "30-day adverse event rate: Shock", "setting": "[2]; both, human, in vivo, 30 days", "result": 2.6, "unit": "%"}, {"measurement": "30-day adverse event rate: Suspected Pneumonia", "setting": "[2]; both, human, in vivo, 30 days", "result": 11.7, "unit": "%"}, {"measurement": "30-day adverse event rate: Syndrome of inappropriate ADH", "setting": "[2]; both, human, in vivo, 30 days", "result": 1.3, "unit": "%"}, {"measurement": "30-day adverse event rate: Tachycardia", "setting": "[2]; both, human, in vivo, 30 days", "result": 24.7, "unit": "%"}, {"measurement": "30-day adverse event rate: Thromboembolic Disease", "setting": "[2]; both, human, in vivo, 30 days", "result": 3.9, "unit": "%"}, {"measurement": "Mean Duration of Pressures Exceeding Threshold Values: CPP < 60", "setting": "[2]; in vivo", "result": 6.9, "unit": "h"}, {"measurement": "Mean Duration of Pressures Exceeding Threshold Values: ICP > 25", "setting": "[2]; in vivo", "result": 5.0, "unit": "h"}, {"measurement": "Mean Duration of Pressures Exceeding Threshold Values: MAP < 70", "setting": "[2]; in vivo", "result": 2.5, "unit": "h"}, {"measurement": "Mean Duration of Pressures Exceeding Threshold Values: Systolic BP < 90", "setting": "[2]; in vivo", "result": 2.7, "unit": "h"}, {"measurement": "Mean Frequency of Pressures Exceeding Threshold Values: CPP < 60", "setting": "[2]; in vivo", "result": "92.9 Rate/1000 consecutive readings"}, {"measurement": "Mean Frequency of Pressures Exceeding Threshold Values: ICP > 25", "setting": "[2]; in vivo", "result": "70.2 Rate/1000 consecutive readings"}, {"measurement": "Mean Frequency of Pressures Exceeding Threshold Values: MAP < 70", "setting": "[2]; in vivo", "result": "29.5 Rate/1000 consecutive readings"}, {"measurement": "Mean Frequency of Pressures Exceeding Threshold Values: Systolic BP < 90", "setting": "[2]; in vivo", "result": "32.1 Rate/1000 consecutive readings"}, {"measurement": "Percent of Patients with Clinical Values Exceeding the Threshold: CPP < 60", "setting": "[2]; in vivo", "result": 48.7, "unit": "%"}, {"measurement": "Percent of Patients with Clinical Values Exceeding the Threshold: ICP > 25", "setting": "[2]; in vivo", "result": 32.4, "unit": "%"}, {"measurement": "Percent of Patients with Clinical Values Exceeding the Threshold: MAP < 70", "setting": "[2]; in vivo", "result": 29.0, "unit": "%"}, {"measurement": "Percent of Patients with Clinical Values Exceeding the Threshold: Systolic BP < 90", "setting": "[2]; in vivo", "result": 29.0, "unit": "%"}, {"measurement": "adverse events specifically ascribed to administration", "setting": "[2]; in vivo", "result": "two cases of superficial phlebitis at the IV site"}, {"measurement": "aggregate and individual rates of adverse and serious adverse events versus placebo", "setting": "[2]; in vivo", "result": "not different between groups"}, {"measurement": "patients who developed a deep vein thrombosis", "setting": "[2]; in vivo", "result": "Three patients"}, {"measurement": "serious adverse events attributed to study drug", "setting": "[2]; in vivo", "result": "No serious adverse events were attributed to progesterone"}, {"measurement": "slope of treatment by time interaction term for mean temperature", "setting": "[2]; in vivo", "result": "−0.0055"}, {"measurement": "30-day adverse event rate: Central nervous system infection", "setting": "[2]; progesterone group, n=77", "result": 1.3, "unit": "%"}, {"measurement": "30-day adverse event rate: Death within 30 days", "setting": "[2]; progesterone group, n=77", "result": 13.0, "unit": "%"}, {"measurement": "30-day adverse event rate: Sepsis", "setting": "[2]; progesterone group, n=77", "result": 2.6, "unit": "%"}]}]}
